# In patent US7351729B2, “JNK inhibitors for use in combination therapy for treating or managing proliferative disorders and cancers” (Signal Pharmaceuticals, LLC, priority 2002, dated 2008):
# Key:
# [1] = tested on: Lewis Lung Carcinoma (LLC) tumors; test: LLC tumor growth in mice, JNK inhibitor B with cyclophosphamide; assay type: in vivo, C57BL/6 mice; conditions: CTX (50 mg/kg, ip, q3d) in combination with JNK inhibitor B; 17 days; 10/group
# Protocol: This experiment was performed to determine if JNK inhibitors will enhance the antitumor effects of cyclophosphamide (CTX) in combination treatment. Results are illustrated in FIG. 2.
# Lewis Lung Carcinoma (LLC) tumors were injected into C57BL/6 mice (50 mice, 10/group), 1×10^6 cells in 0.1 ml Matrigel. Tumors were treated the day after inoculation by administration of vehicle alone (0.5% CMC/0.25% Tween 80), cyclophosphamide (CTX, 50 mg/kg, ip, q3d), SPC2 (75 mg/kg, ip, b.i.d.) or CTX in combination with JNK inhibitor B. Tumor volume was recorded over a period of 17 days. Tumor volume was calculated by the formula: mm^3=(L×W^2)/2. In the CTX/JNK inhibitor B combination group, 7/10 animals had no measurable tumors at the end of the study.
# [2] = tested on: Lewis Lung Carcinoma (LLC) cells; test: Lewis Lung Carcinoma (LLC) proliferation in vitro, Alamar Blue fluorescence; assay type: cell-based; conditions: combination with a chemodrug (doxorubican, 5-FU, cisplatin or paclitaxel), 48 hours after treatment, relative to JNK inhibitor or chemodrug alone
# Protocol: This experiment was performed in vitro to determine the effect on Lewis Lung Carcinoma (LLC) proliferation of combination treatment with JNK inhibitor A and JNK inhibitor B (JNK inhibitor A=((2H-Dibenzo(cd,g)indazol-6-one)); JNK inhibitor B=(3-(4-fluoro-phenyl)-5-(2H-(1,2,4-triazol-3-yl)-1H-indazole)) and anti-cancer agents. The results are illustrated in FIGS. 1A and 1B.
# LLC cells were grown in DMEM with 10% FBS. Cells were subsequently treated on the second day with either DMSO,JNK inhibitor A (3 μM, 10 μM or 30 μM), JNK inhibitor B (1 μM, 3 μM, or 10 μM), or a chemodrug (i.e., doxorubican, […] (5-FU), cisplatin or paclitaxel) (concentrations ranging from 0.001 μM to 10 μM) or a combination of JNK inhibitor A or JNK inhibitor B with a chemodrug. Cell proliferation was measured at 48 hours after treatment by Alamar Blue fluorescence.
# [3] = tested on: HCT-116 human colorectal cancer cells; test: HCT-116 tumor growth in SCID mice, JNK inhibitor C with Camptosar; assay type: in vivo, CB17 SCID mice; conditions: JNK inhibitor C (15 mg/kg, i.p., b.i.d) + Camptosar (1.5 mg/kg, q4d)
# Protocol: The following experiment was performed to determine the effectiveness of combination treatment with JNK inhibitor C (JNK inhibitor C=(3-(4-(2-Piperidin-1-yl-ethoxy)-cyclohexa-1,5-dienyl)-5-(2H-(1,2,4)triazol-3-yl)-1H-indazole)) and Camptosar. The results are illustrated in FIG. 5.
# CB17 SCID mice were inoculated subcutaneously with HCT-116 human colorectal cancer cells. On day 8, mice bearing tumors of 100 mm^3 were segregated into groups and administered i.p. with vehicle (citrate buffer), JNK inhibitor C (15 mg/kg), JNK inhibitor C (30 mg/kg), JNK inhibitor C (15 mg/kg)+Camptosar (1.5 mg/kg), Camptosar (1.5 mg/kg) or Camptosar (10 mg/kg). The tumors were measured twice a week and volumes calculated. The dosing regimen for the compound JNK inhibitor C was b.i.d and for Camptosar was q4d. The arrows indicate the dosing days of JNK inhibitor C and Camptosar.
# Lewis lung carcinoma = test: LLC tumor growth in mice, JNK inhibitor A with cyclophosphamide; assay type: in vivo, C57BL/6 mice; conditions: JNK inhibitor A in combination with cyclophosphamide; p=0.05; N=10
# Protocol: The following experiment was performed to determine the effectiveness of combination treatment with JNK inhibitor A and cyclophosphamide. The results are illustrated in FIG. 4.
# Tumor cells were cultured under normal conditions, harvested with trypsin, washed with PBS then resuspended, 1×10^7 cells/ml in Matrigel (Collaborative). C57BL/6 mice (female, 18-20 g, Charles River) were lightly anesthetized using Isofluorane then inoculated, subcutaneously, under the right flank with 0.1 ml Matrigel containing 1×10^6 tumor cells. Mice were randomized into treatment groups immediately after cell inoculation. After 3 days tumor growth treatment began. Mice were administered vehicle alone (DMSO), cyclophosphamide (CTX), JNK inhibitor A or CTX in combination with JNK inhibitor A. Tumor volumes were determined by caliper measurement. Tumor volume was calculated by the formula: mm^3=(L×W2)/2. Values are mean±sem, N=10.
# MiaPaCa cells = test: MiaPaCa cell apoptosis, DiOC6 staining and flow cytometry; assay type: cell-based; conditions: taxol for first 7 hours, washed out, then JNK inhibitor A; read at 48 hours; compared to taxol alone
# Protocol: The following experiment was performed to determine the effectiveness of combination treatment with JNK inhibitor A and a chemodrug on apoptosis. The results are illustrated in FIG. 3.
# MiaPaCa cells (100,000/well) were plated in 6 well plates. Following overnight incubation, vehicle or taxol was added alone for the first 7 hours, washed out, and then JNK inhibitor A or vehicle were added for the remainder of the experiment. After 48 hours, each sample was trypsinized, stained with DiOC6 and analyzed by flow cytometry on a Coulter Epics flow cytometer using FlowJo software.
smiles,measurement,setting,value
"Fc1ccc(-c2n[nH]c3ccc(-c4ncn[nH]4)cc23)cc1 [JNK inhibitor B, 3-(4-fluoro-phenyl)-5-(2H-(1,2,4)triazol-3-yl)-1H-indazole]",animals with no measurable tumors at the end of the study,[1],7/10
same,killing of cells (cell proliferation),[2],increased killing of cells
"C1=CC(OCCN2CCCCC2)CC=C1c1n[nH]c2ccc(-c3ncn[nH]3)cc12 (stereo not drawn) [JNK inhibitor C, 3-(4-(2-Piperidin-1-yl-ethoxy)-cyclohexa-1,5-dienyl)-5-(2H-(1,2,4)triazol-3-yl)-1H-indazole]",tumor growth versus either treatment alone,[3],significantly slower
"O=C1c2ccccc2-c2n[nH]c3cccc1c23 [JNK inhibitor A, 2H-Dibenzo(cd,g) indazol-6-one]",tumor inhibition (tumor volume) versus cyclophosphamide alone,Lewis lung carcinoma,significantly less
same,killing of cells (cell proliferation),[2],increased killing of cells
same,chemotherapeutic induction of apoptosis,MiaPaCa cells,Potentiates Chemotherapeutic Induction of Apoptosis
